Measured values: US4092420A, “Novel soft N-chloroamino alcohol derivatives exhibiting antibacterial activity” (INTERx Research Corporation, priority 1977, dated 1978)

Columns and labels:
P. aeruginosa = test: Minimal inhibitory concentration (MIC), Example V; format: cell-based; settings: Pseudomonas aeruginosa
Method: (§1) THE ANTIBACTERIAL SCREEN - EXAMPLE V
(§2) THE ANTIBACTERIAL SCREEN - EXAMPLES W - Z (Autotiter IV)
(§3) (a) Compounds. All compounds to be screened are weighed (approx. 10 mg) on the day preceding the test date. Each compound is solubilized on the day of assay in appropriate solvent and diluted automatically in the Autotiter IV with distilled water (buffer can be employed here also).
(§4) Bacteria: Staphylococcus aureas Smith (or 209), Escherichia coli AB 1932-1, 1100/B22 and Vogel, Streptococcus pyogenes C203 Salmonella typhimurium 14028, Bacillus subtilis 6051-1, Klebsiella pneumoniae 10031, Pseudomonas aeruginosa 9027, Bordetella bronchiseptica 4617 and Staphylococcus epidermidis 12228.
(§5) (c) Inocula. Prior to utilization in the Autotiter IV, all bacteria are cultured for 18-20 hr. (37° C) in tryptose phosphate broth (TP), except, S. pyogenes C203, which is cultured in Brain Heart Infusion broth plus 10% normal horse serum. Immediately prior to testing, each culture is adjusted to an optical density of 0.10 (650 nm), employing a Bausch & Lomb Spectronic 20, and diluted subsequently into double strength medium to approximately 2 × 10^5 viable organisms per ml.
(§6) 1. An automated injector system dispenses 0.05 ml of diluent (sterile H2 O or buffer) to all cups of the autotiter trays from rows 2 through 7.
(§7) 2. The loops (for sequential dilutions of the compounds are moistened by immersion into 70% ethyl alcohol. After removal of excess alcohol by blotting, the loops are moved to the first row of cups in the autotray containing 0.10 ml of the compound to be diluted and tested (usually, this initial concentration is 500 to 1000 mcg/ml, but can be varied upward or downward). The loops are lowered and sequentially transfer the diluted solutions of the compound through row 7.
(§8) Immediately after each dilution is made, each cup is automatically inoculated with 0.05 ml of the appropriate test organism. This inoculation derives from a second injector system containing the organism in double-strength medium. The total operation consists of the automatic dilution of a single compound in each of 8 rows of the Autotiter try.
(§9) After these operations, we reverse the tray and a second compound is diluted over the other one-half of the tray and inoculated, subsequently, with 8 organisms. Thus, for each Autotiter Tray, two compounds are screened against 8 different organisms at dilutions ranging from 1:2 to 1:128.
(§10) (e) Incubation. The inoculated Autotiter trays are incubated at 37° C for 18 - 20 hr. At the end of this period, each tray is examined for the presence or absence of growth (turbidity). The lowest concentration of the compound inhibiting growth is recorded as the minimal inhibitory concentration (MIC).

S. aureus [1] = test: Minimal inhibitory concentration (MIC), Example V; format: cell-based; settings: Staphylococcus aureus
Method: as §1, §2, §3, §4, §5, §6, §7, §8, §9, §10

C. albicans = test: Minimal inhibitory concentration (MIC), Example V; format: cell-based; settings: Candida albicans
Excerpt: MINIMAL INHIBITORY CONCENTRATION OF 2-AMINO-2-METHYL-1-PROPYL […]
as §1

S. aureus [2] = test: Contact germicidal efficiency (sterilization time); format: cell-based, Staphylococcus aureus; settings: Example Y, pH 4.6, in presence of horse serum, 468 ppm (80 PPMCl+)
Method: (§11) CONTACT GERMICIDAL EFFICIENCY OF
(§12) ^a Time intervals screened 0.5, 1, 2, 3, 4 and 5 minutes.
(§13) ^a Time intervals screened 0.5, 1, 2, 3, 4, 5, 6, 7, 8, 9 and 10
(§14) ^a Time intervals screened 0.5, 1, 2, 3, 4, and 5 minutes.
(§15) ^b Time intervals screened 0.5, 1, 2, 3, 4, 5, 6, 7, 8, 9 and 10
(§16) Immediately preceding the screen, the compound is weighed and diluted with a buffer or other solvent to give the final concentration desired. The buffer or solvent chosen depends on the conditions of the screen and could be one of the following: 0.1 M NaOAc, pH 4.6; 0.1 M NaH2 PO4, pH 7.0; 0.1 M Na2 B4 O7, pH 8.8; 35% methanol in one of the aforementioned buffers; 10% Triton × 100 in buffer, etc.
(§17) The positive chlorine concentration of the test solution is then determined iodometrically.
(§18) Media used for the Screen are Nutrient Broth, BBL# 11479 and Nutrient Agar, BBL# 11472 prepared according to label directions. The broth is dispensed in 75 ml amounts of flasks for overnight cultures and in 5 ml amounts to culture tubes for subculturing during the Screen. Agar plates are prepared as usual. […]
(§19) A 0.2 ml portion of the overnight culture is inoculated into 5 ml of 0.9% NaCl for use in controls. […] The earliest subculture time at which no growth is present in the subculture tube is considered the endpoint and is recorded as that time, e.g., 7 minutes. […]

E. coli = test: Contact germicidal efficiency (sterilization time); format: cell-based, Escherichia coli; settings: Example Y, pH 4.6, in presence of horse serum, 468 ppm (80 PPMCl+)
Method: as §11, §12, §13, §14, §15, §16, §17, §18, §19

B. bronchiseptica = test: Contact germicidal efficiency (sterilization time); format: cell-based, Bordetella bronchiseptica
Method: CONTACT GERMICIDAL EFFICIENCY OF N-CHLORAMINES AS A FUNCTION
as §12, §13, §14, §15, §16, §17
Media used for the Screen are Nutrient Broth, BBL# 11479 and Nutrient Agar, BBL# 11472 prepared according to label directions. The broth is dispensed in 75 ml amounts of flasks for overnight cultures and in 5 ml amounts to culture tubes for subculturing during the Screen. Agar plates are prepared as usual.
Overnight cultures are prepared by inoculating from stock cultures into the 75 ml flasks of nutrient broth and incubating for 15 hours at 37° C.
The iodometrically characterized test solution is dispensed in 5 ml amounts to seven small stoppered flasks. The organisms are screened one at a time as follows:
A 0.2 ml portion of the overnight culture is inoculated into 5 ml of 0.9% NaCl for use in controls. A 0.2 ml portion of the overnight culture is inoculated into a flask containing 5 ml of the test solution, an automatic timer is simultaneously triggered and the solution mixed. At time intervals of 30 seconds, 1, 2, 3, 4, 5, 6, 7, 8, 9, and 10 minutes a loopful of the inoculated solution is subcultured into 5 ml of sterile nutrient broth and mixed by a Vortex Genie Mixer, the high dilution serving to stop the action of the compound. At the end of the ten minute screen, the entire procedure is repeated for each of the remaining six organisms. All of the subculture tubes are incubated at 37° C and checked for signs of growth by turbidity at 24 hr., 48 hr., 3, 5, and 7 days. The earliest subculture time at which no growth is present in the subculture tube is considered the endpoint and is recorded as that time, e.g., 7 minutes.
The test solution is prepared and characterized as above but is made up at twice the concentration desired. The solution is diluted 1:1 with Rehydrated Tissue Culture Dessicated Horse Serum, Difco #5357-72 and dispensed in a 5 ml amount to a small flask. The mixture is incubated at Room Temperature for 30 minutes to allow denaturation of the compound by the serum and then screened as above.
The 5 ml mixture of serum and test solution are prepared in sequence to allow as close to 30 minutes as possible before the beginning of the screen of each organism.
as §4

## CC(C)(COC(=O)C(C)(C)C)NCl [IV c, 2-N-Chloroamino-2-methyl-1-propyl 2,2-dimethylproprionate]
P. aeruginosa
  MIC: > 250 µg/mL
S. aureus [1]
  MIC: > 250 µg/mL
C. albicans
  MIC: > 250 µg/mL
S. aureus [2]
  Sterilization Time: > 10 min
E. coli
  Sterilization Time: > 10 min
B. bronchiseptica; Example X, pH 4.6, no horse serum, IV c 404 ppm (69 PPMCl+), IV g 489 ppm (143 PPMCl+)
  Sterilization Time: 0.5 min
B. bronchiseptica; Example X, pH 7.0, no horse serum, IV c 1886 ppm (323 PPMCl+), IV g 409 ppm (120 PPMCl+)
  Sterilization Time: 1 min
B. bronchiseptica; Example X, pH 9.3, no horse serum, IV c 1704 ppm (292 PPMCl+), IV g 319 ppm (94 PPMCl+)
  Sterilization Time: 1 min
B. bronchiseptica; Example Y, pH 4.6, in presence of horse serum, 468 ppm (80 PPMCl+)
  Sterilization Time: > 10 min
